In patent publication US6586468B1, “ω-substituted phenyl-prostaglandin E derivatives and drugs containing the same as the active ingredient” (Ono Pharmaceutical Co., Ltd., priority 1998, dated 2003):

Legend:
EP4 = molecular target: T1, EP4 (Mus musculus, UniProt P32240); experiment: Binding assay using expression CHO cell of prostanoid receptor subtype, [3H]-PGE2 binding inhibition (EP4); conditions: membrane fraction of CHO cells expressing mouse EP4; [3H]-PGE2 2.5 nM; Ki=IC50/(1+([C]/Kd)); read-out: Dissociation Constant Ki (μM) EP4
T1 construct: expressed in transfected cells; host or cells: CHO cells (membrane fraction)
T1 sequence (P32240 whole entry): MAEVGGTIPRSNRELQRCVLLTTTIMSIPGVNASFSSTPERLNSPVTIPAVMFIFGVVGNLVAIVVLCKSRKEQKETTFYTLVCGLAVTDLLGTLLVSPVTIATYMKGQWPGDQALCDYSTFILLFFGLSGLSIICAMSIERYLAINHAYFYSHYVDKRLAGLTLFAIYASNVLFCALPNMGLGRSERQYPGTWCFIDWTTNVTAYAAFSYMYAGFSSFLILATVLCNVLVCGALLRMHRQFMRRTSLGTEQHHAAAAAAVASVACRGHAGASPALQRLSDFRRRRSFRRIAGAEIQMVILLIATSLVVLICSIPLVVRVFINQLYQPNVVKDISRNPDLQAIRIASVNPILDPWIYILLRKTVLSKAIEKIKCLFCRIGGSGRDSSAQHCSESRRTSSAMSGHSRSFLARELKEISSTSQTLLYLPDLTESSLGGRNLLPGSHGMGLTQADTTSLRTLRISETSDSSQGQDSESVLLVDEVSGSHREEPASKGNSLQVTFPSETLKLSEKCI
Procedure: (§1) (i) Binding assay using Expression cell of prostanoids receptor subtype
(§2) The preparation of membrane fraction was carried out according to the method of Sugimoto et al. [J. Biol. Chem., 267, 6463-6466 (1992)], using expression CHO cell of the prostanoids receptor subtype (mouse EP1, EP2, EP3α, EP4 and human IP).
(§3) The standard assay mixture containing membrane fraction (0.5 mg/ml) and [^3H]-PGE2 in a final volume of 200 μl was incubated for 1 hour at room temperature. The reaction was terminated by addition of ice-cooled buffer (3 ml). The mixture was filtered through a GF/B glass filter under reduced pressure. The radioactivity associated with the filter was measured by liquid scintillation counting.
(§4) Kd and Bmax values were determined from Scatchard plots [Ann. N. Y. Acad. Sci., 51, 660 (1949)]. Non-specific binding was calculated as the binding in the presence of an excess (2.5 μM) of unlabeled PGE2. In the measurement of ^3H-PGE2 binding inhibitory activity, [3H]-PGE2 (2.5 nM) and various concentrations of the compounds of the present invention were added. The following buffer was used in all reactions.
(§5) Buffer; 10 mM potassium phosphate (pH 6.0), 1 mM EDTA, 10 mM MgCl2, 0.1 M NaCl.
(§6) The dissociation constant Ki (μM) of each compound was calculated by the following equation.

EP3α = molecular target: T2, EP3α (Mus musculus, UniProt P30557); experiment: Binding assay using expression CHO cell of prostanoid receptor subtype, [3H]-PGE2 binding inhibition (EP3α); conditions: membrane fraction of CHO cells expressing mouse EP3α; [3H]-PGE2 2.5 nM; Ki=IC50/(1+([C]/Kd)); read-out: Dissociation Constant Ki (μM) EP3α
T2 construct: expressed in transfected cells; host or cells: CHO cells (membrane fraction)
T2 sequence (P30557 1-365): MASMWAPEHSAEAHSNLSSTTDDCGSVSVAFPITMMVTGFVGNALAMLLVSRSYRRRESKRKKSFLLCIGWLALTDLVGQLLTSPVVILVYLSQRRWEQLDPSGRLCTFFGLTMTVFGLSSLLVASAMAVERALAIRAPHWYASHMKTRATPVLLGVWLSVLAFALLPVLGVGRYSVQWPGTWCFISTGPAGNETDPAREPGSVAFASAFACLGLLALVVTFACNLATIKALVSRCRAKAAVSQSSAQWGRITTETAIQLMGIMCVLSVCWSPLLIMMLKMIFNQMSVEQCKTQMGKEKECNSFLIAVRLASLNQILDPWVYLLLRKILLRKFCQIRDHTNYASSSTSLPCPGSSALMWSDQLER
Procedure: as §1, §2, §3, §4, §5, §6

Ki (EP4)	Ki (EP3α)	Compound
0.0015 µM	0.04 µM	CCOCc1cccc(C[C@H](O)/C=C/[C@@H]2[C@@H](C/C=C\CCCC(=O)O)[C@H](Cl)C[C@H]2O)c1 [8 (6), (9β,11α,15α)-9-Chloro-11,15-dihydroxy-16-(3-ethoxymethylphenyl)-17,18,19,20-tetranorprost-5Z,13E-dienoic Acid]
0.006 µM	0.82 µM	COCc1cccc(C[C@H](O)/C=C/[C@H]2[C@H](O)CC(=O)[C@@H]2CCCCCCC(=O)O)c1 [Example 2, (11α,15α)-9-oxo-11,15-Dihydroxy-16-(3-methoxymethylphenyl)-17,18,19,20-tetranorprost-13E-enoic Acid]
0.0036 µM	3.2 µM	COCc1cc(CC(O)/C=C/[C@@H]2[C@@H](C/C=C\CCCC(=O)O)[C@H](Cl)C[C@H]2O)ccc1O (stereo partly drawn) [Example 4, (9β,11α,15ξ)-9-Chloro-11,15-dihydroxy-16-(3-methoxymethyl-4-hydroxyphenyl)-17,18,19,20-tetranorprost-5Z,13E-dienoic Acid]
0.032 µM	0.011 µM	Cc1ccc(C[C@H](O)/C=C/[C@H]2[C@H](O)CC(=O)[C@@H]2C/C=C\CCCC(=O)O)cc1 [reference compound]
0.067 µM	0.048 µM	COc1ccc(C[C@H](O)/C=C/[C@H]2[C@H](O)CC(=O)[C@@H]2C/C=C\CCCC(=O)O)cc1 [reference compound]

The remaining lines, values behind:

Compound	Ki (EP4)	Ki (EP3α)
O=C(O)CCCCCC[C@H]1C(=O)C[C@@H](O)[C@@H]1/C=C/[C@@H](O)Cc1cccc(CCF)c1 [2 (1), (11α,15α)-9-oxo-11,15-Dihydroxy-16-[3-(2-fluoroethyl)phenyl]-17,18,19,20-tetranorprost-13E-enoic Acid]	0.0016 µM	0.12 µM
Cc1cc(C[C@H](O)/C=C/[C@H]2[C@H](O)CC(=O)[C@@H]2CCCCCCC(=O)O)ccc1O [2 (4), (11α,15α)-9-oxo-11,15-dihydroxy-16-(3-methyl-4-hydroxyphenyl)-17,18,19,20-tetranorprost-13E-enoic Acid]	0.003 µM	> 10 µM
CCOCc1cccc(C[C@H](O)/C=C/[C@H]2[C@H](O)CC(=O)[C@@H]2C/C=C\CCCC(=O)O)c1 [2 (11), (11α,15α)-9-oxo-11,15-Dihydroxy-16-(3-ethoxymethylphenyl)-17,18,19,20-tetranorprost-5Z,13E-dienoic Acid]	0.01 µM	0.54 µM
COCc1cccc(C[C@H](O)/C=C/[C@H]2CCC(=O)[C@@H]2C/C=C\CCCC(=O)O)c1 [2 (15), (15α)-9-oxo-15-Hydroxy-16-(3-methoxymethylphenyl)-17,18,19,20-tetranorprost-5Z,13E-dienoic Acid]	0.0026 µM	1.4 µM
CCCOCc1cccc(CC(O)/C=C/[C@@H]2[C@@H](C/C=C\CCCC(=O)O)[C@H](F)C[C@H]2O)c1 (stereo partly drawn) [4 (12), (9β,11α,15ξ)-9-Fluoro-11,15-dihydroxy-16-(3-propyloxymethylphenyl)-17,18,19,20-tetranorprost-5Z,13E-dienoic Acid]	0.0059 µM	0.35 µM
CCOCc1cccc(CC(O)/C=C/[C@H]2[C@H](O)CC(=O)[C@@H]2CCc2ccc(C(=O)O)cc2)c1 (stereo partly drawn) [5 (12), (11α,15α)-9-oxo-11,15-Dihydroxy-16-(3-ethoxymethylphenyl)-1,6-(1,4-phenylene)-2,3,4,5,17,18,19,20-octanorprost-13E-enoic Acid]	0.008 µM	6 µM
